tested on: Key Grass and Sedge Weeds as well as Grass Crops; test: Post-Emergent Test II (Table 6); assay type: in vivo; details: post-emergence, 336 h, CYPSS, 70 g ai/ha, 14 days after application, read-out: Visual Growth Reduction (%) 14 Days After Application CYPSS
How it was run: (§1)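 Plants grown in a greenhouse (~15 h photoperiod, 23-29° C day) to first or second true leaf stage were sprayed post-emergence at 187 L/ha with compound in acetone/DMSO-based aqueous spray containing crop oil concentrate and surfactant, applied at a high rate plus ½× to 1/16× serial rates. Injury was scored visually 14 days later, 0-100% versus untreated plants.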

SMILES	pest or weed control at 70 g/ha [%]
Nc1c(F)c(-c2ccc(Cl)c(Cl)c2Cl)nc(C(=O)O)c1Cl [Compound 10]	0 to 29

same assay, conditions: post-emergence, 336 h, CYPSS, 140 g ai/ha, 14 days after application, read-out: Visual Growth Reduction (%) 14 Days After Application CYPSS

SMILES	pest or weed control at 140 g/ha [%]
Nc1c(F)c(-c2ccc(Cl)c(Cl)c2Cl)nc(C(=O)O)c1Cl [Compound 10]	0 to 29

same assay, conditions: post-emergence, 336 h, DIGSA: crabgrass (Digitaria sanguinalis), 70 g ai/ha, 14 days after application, read-out: Visual Growth Reduction (%) 14 Days After Application DIGSA

SMILES	pest or weed control at 70 g/ha [%]
Nc1c(F)c(-c2ccc(Cl)c(Cl)c2Cl)nc(C(=O)O)c1Cl [Compound 10]	0 to 29

same assay, conditions: post-emergence, 336 h, DIGSA: crabgrass (Digitaria sanguinalis), 140 g ai/ha, 14 days after application, read-out: Visual Growth Reduction (%) 14 Days After Application DIGSA

SMILES	pest or weed control at 140 g/ha [%]
Nc1c(F)c(-c2ccc(Cl)c(Cl)c2Cl)nc(C(=O)O)c1Cl [Compound 10]	45 to 59

same assay, conditions: post-emergence, 336 h, ECHSS, 70 g ai/ha, 14 days after application, read-out: Visual Growth Reduction (%) 14 Days After Application ECHSS

SMILES	pest or weed control at 70 g/ha [%]
Nc1c(F)c(-c2ccc(Cl)c(Cl)c2Cl)nc(C(=O)O)c1Cl [Compound 10]	0 to 29

same assay, conditions: post-emergence, 336 h, ECHSS, 140 g ai/ha, 14 days after application, read-out: Visual Growth Reduction (%) 14 Days After Application ECHSS

SMILES	pest or weed control at 140 g/ha [%]
Nc1c(F)c(-c2ccc(Cl)c(Cl)c2Cl)nc(C(=O)O)c1Cl [Compound 10]	0 to 29

same assay, conditions: post-emergence, 336 h, ORYSS (crop), 70 g ai/ha, 14 days after application, read-out: Visual Growth Reduction (%) 14 Days After Application ORYSS

SMILES	pest or weed control at 70 g/ha [%]
Nc1c(F)c(-c2ccc(Cl)c(Cl)c2Cl)nc(C(=O)O)c1Cl [Compound 10]	0 to 29

same assay, conditions: post-emergence, 336 h, ORYSS (crop), 140 g ai/ha, 14 days after application, read-out: Visual Growth Reduction (%) 14 Days After Application ORYSS

SMILES	pest or weed control at 140 g/ha [%]
Nc1c(F)c(-c2ccc(Cl)c(Cl)c2Cl)nc(C(=O)O)c1Cl [Compound 10]	0 to 29

same assay, conditions: post-emergence, 336 h, SETFA: giant foxtail (Setaria faberi), 70 g ai/ha, 14 days after application, read-out: Visual Growth Reduction (%) 14 Days After Application SETFA

SMILES	pest or weed control at 70 g/ha [%]
Nc1c(F)c(-c2ccc(Cl)c(Cl)c2Cl)nc(C(=O)O)c1Cl [Compound 10]	0 to 29

same assay, conditions: post-emergence, 336 h, SETFA: giant foxtail (Setaria faberi), 140 g ai/ha, 14 days after application, read-out: Visual Growth Reduction (%) 14 Days After Application SETFA

SMILES	pest or weed control at 140 g/ha [%]
Nc1c(F)c(-c2ccc(Cl)c(Cl)c2Cl)nc(C(=O)O)c1Cl [Compound 10]	0 to 29

same assay, conditions: post-emergence, 336 h, SORVU: grain sorghum (Sorghum vulgare), 70 g ai/ha, 14 days after application, read-out: Visual Growth Reduction (%) 14 Days After Application SORVU

SMILES	pest or weed control at 70 g/ha [%]
Nc1c(F)c(-c2ccc(Cl)c(Cl)c2Cl)nc(C(=O)O)c1Cl [Compound 10]	0 to 29

same assay, conditions: post-emergence, 336 h, SORVU: grain sorghum (Sorghum vulgare), 140 g ai/ha, 14 days after application, read-out: Visual Growth Reduction (%) 14 Days After Application SORVU

SMILES	pest or weed control at 140 g/ha [%]
Nc1c(F)c(-c2ccc(Cl)c(Cl)c2Cl)nc(C(=O)O)c1Cl [Compound 10]	0 to 29

same assay, conditions: post-emergence, 336 h, TRZSS (crop), 70 g ai/ha, 14 days after application, read-out: Visual Growth Reduction (%) 14 Days After Application TRZSS

SMILES	pest or weed control at 70 g/ha [%]
Nc1c(F)c(-c2ccc(Cl)c(Cl)c2Cl)nc(C(=O)O)c1Cl [Compound 10]	75 to 84

same assay, conditions: post-emergence, 336 h, TRZSS (crop), 140 g ai/ha, 14 days after application, read-out: Visual Growth Reduction (%) 14 Days After Application TRZSS

SMILES	pest or weed control at 140 g/ha [%]
Nc1c(F)c(-c2ccc(Cl)c(Cl)c2Cl)nc(C(=O)O)c1Cl [Compound 10]	85 to 94

same assay, conditions: post-emergence, 336 h, ZEAMX: maize, corn (Zea mays), 70 g ai/ha, 14 days after application, read-out: Visual Growth Reduction (%) 14 Days After Application ZEAMX

SMILES	pest or weed control at 70 g/ha [%]
Nc1c(F)c(-c2ccc(Cl)c(Cl)c2Cl)nc(C(=O)O)c1Cl [Compound 10]	60 to 74

same assay, conditions: post-emergence, 336 h, ZEAMX: maize, corn (Zea mays), 140 g ai/ha, 14 days after application, read-out: Visual Growth Reduction (%) 14 Days After Application ZEAMX

SMILES	pest or weed control at 140 g/ha [%]
Nc1c(F)c(-c2ccc(Cl)c(Cl)c2Cl)nc(C(=O)O)c1Cl [Compound 10]	60 to 74

tested on: Key Broadleaf Weed and Crop Species; test: Post-Emergent Test II (Table 5); assay type: in vivo; details: Abutilon theophrasti, post-emergence, 336 h, ABUTH: velvetleaf (Abutilon theophrasti), application rate 70 (kg ai/ha; footnote: g ai/ha), read-out: Visual Growth Reduction (%) 14 Days After Application ABUTH
How it was run: as §1

SMILES	pest or weed control at 70 g/ha [%]
Nc1c(F)c(-c2ccc(Cl)c(Cl)c2Cl)nc(C(=O)O)c1Cl [Compound 10]	0 to 29

same assay, conditions: Abutilon theophrasti, post-emergence, 336 h, ABUTH: velvetleaf (Abutilon theophrasti), application rate 140 (kg ai/ha; footnote: g ai/ha), read-out: Visual Growth Reduction (%) 14 Days After Application ABUTH

SMILES	pest or weed control at 140 g/ha [%]
Nc1c(F)c(-c2ccc(Cl)c(Cl)c2Cl)nc(C(=O)O)c1Cl [Compound 10]	0 to 29

same assay, conditions: Amaranthus retroflexus, post-emergence, 336 h, AMARE: redroot pigweed (Amaranthus retroflexus), application rate 70 (kg ai/ha; footnote: g ai/ha), read-out: Visual Growth Reduction (%) 14 Days After Application AMARE

SMILES	pest or weed control at 70 g/ha [%]
Nc1c(F)c(-c2ccc(Cl)c(Cl)c2Cl)nc(C(=O)O)c1Cl [Compound 10]	95 to 100

same assay, conditions: Amaranthus retroflexus, post-emergence, 336 h, AMARE: redroot pigweed (Amaranthus retroflexus), application rate 140 (kg ai/ha; footnote: g ai/ha), read-out: Visual Growth Reduction (%) 14 Days After Application AMARE

SMILES	pest or weed control at 140 g/ha [%]
Nc1c(F)c(-c2ccc(Cl)c(Cl)c2Cl)nc(C(=O)O)c1Cl [Compound 10]	95 to 100

same assay, conditions: Brassica napus, post-emergence, 336 h, BRSSS: oilseed rape, canola (Brassica napus), application rate 70 (kg ai/ha; footnote: g ai/ha), read-out: Visual Growth Reduction (%) 14 Days After Application BRSSS

SMILES	pest or weed control at 70 g/ha [%]
Nc1c(F)c(-c2ccc(Cl)c(Cl)c2Cl)nc(C(=O)O)c1Cl [Compound 10]	95 to 100

same assay, conditions: Brassica napus, post-emergence, 336 h, BRSSS: oilseed rape, canola (Brassica napus), application rate 140 (kg ai/ha; footnote: g ai/ha), read-out: Visual Growth Reduction (%) 14 Days After Application BRSSS

SMILES	pest or weed control at 140 g/ha [%]
Nc1c(F)c(-c2ccc(Cl)c(Cl)c2Cl)nc(C(=O)O)c1Cl [Compound 10]	95 to 100

same assay, conditions: Chenopodium album, post-emergence, 336 h, CHEAL: lambsquarters (Chenopodium album), application rate 70 (kg ai/ha; footnote: g ai/ha), read-out: Visual Growth Reduction (%) 14 Days After Application CHEAL

SMILES	pest or weed control at 70 g/ha [%]
Nc1c(F)c(-c2ccc(Cl)c(Cl)c2Cl)nc(C(=O)O)c1Cl [Compound 10]	75 to 84

same assay, conditions: Chenopodium album, post-emergence, 336 h, CHEAL: lambsquarters (Chenopodium album), application rate 140 (kg ai/ha; footnote: g ai/ha), read-out: Visual Growth Reduction (%) 14 Days After Application CHEAL

SMILES	pest or weed control at 140 g/ha [%]
Nc1c(F)c(-c2ccc(Cl)c(Cl)c2Cl)nc(C(=O)O)c1Cl [Compound 10]	75 to 84

same assay, conditions: Euphorbia heterophylla, post-emergence, 336 h, EPHHL: wild poinsettia (Euphorbia heterophylla), application rate 70 (kg ai/ha; footnote: g ai/ha), read-out: Visual Growth Reduction (%) 14 Days After Application EPHHL

SMILES	pest or weed control at 70 g/ha [%]
Nc1c(F)c(-c2ccc(Cl)c(Cl)c2Cl)nc(C(=O)O)c1Cl [Compound 10]	60 to 74

same assay, conditions: Euphorbia heterophylla, post-emergence, 336 h, EPHHL: wild poinsettia (Euphorbia heterophylla), application rate 140 (kg ai/ha; footnote: g ai/ha), read-out: Visual Growth Reduction (%) 14 Days After Application EPHHL

SMILES	pest or weed control at 140 g/ha [%]
Nc1c(F)c(-c2ccc(Cl)c(Cl)c2Cl)nc(C(=O)O)c1Cl [Compound 10]	75 to 84

same assay, conditions: Helianthus annuus, post-emergence, 336 h, HELAN: sunflower (Helianthus annuus), application rate 70 (kg ai/ha; footnote: g ai/ha), read-out: Visual Growth Reduction (%) 14 Days After Application HELAN

SMILES	pest or weed control at 70 g/ha [%]
Nc1c(F)c(-c2ccc(Cl)c(Cl)c2Cl)nc(C(=O)O)c1Cl [Compound 10]	0 to 29

same assay, conditions: Helianthus annuus, post-emergence, 336 h, HELAN: sunflower (Helianthus annuus), application rate 140 (kg ai/ha; footnote: g ai/ha), read-out: Visual Growth Reduction (%) 14 Days After Application HELAN

SMILES	pest or weed control at 140 g/ha [%]
Nc1c(F)c(-c2ccc(Cl)c(Cl)c2Cl)nc(C(=O)O)c1Cl [Compound 10]	0 to 29

same assay, conditions: Viola tricolor, post-emergence, 336 h, VIOTR: wild pansy (Viola tricolor), application rate 70 (kg ai/ha; footnote: g ai/ha), read-out: Visual Growth Reduction (%) 14 Days After Application VIOTR

SMILES	pest or weed control at 70 g/ha [%]
Nc1c(F)c(-c2ccc(Cl)c(Cl)c2Cl)nc(C(=O)O)c1Cl [Compound 10]	0 to 29

same assay, conditions: Viola tricolor, post-emergence, 336 h, VIOTR: wild pansy (Viola tricolor), application rate 140 (kg ai/ha; footnote: g ai/ha), read-out: Visual Growth Reduction (%) 14 Days After Application VIOTR

SMILES	pest or weed control at 140 g/ha [%]
Nc1c(F)c(-c2ccc(Cl)c(Cl)c2Cl)nc(C(=O)O)c1Cl [Compound 10]	0 to 29
